From patent US9108944B2, “Androgen receptor modulators and uses thereof” (ARAGON PHARMACEUTICALS, INC., priority 2010, dated 2015) come the findings set out here.

This assay addresses T1, AR-VP16 (Homo sapiens, UniProt P10275).
T1 sequence (P10275 560-920 limits assumed): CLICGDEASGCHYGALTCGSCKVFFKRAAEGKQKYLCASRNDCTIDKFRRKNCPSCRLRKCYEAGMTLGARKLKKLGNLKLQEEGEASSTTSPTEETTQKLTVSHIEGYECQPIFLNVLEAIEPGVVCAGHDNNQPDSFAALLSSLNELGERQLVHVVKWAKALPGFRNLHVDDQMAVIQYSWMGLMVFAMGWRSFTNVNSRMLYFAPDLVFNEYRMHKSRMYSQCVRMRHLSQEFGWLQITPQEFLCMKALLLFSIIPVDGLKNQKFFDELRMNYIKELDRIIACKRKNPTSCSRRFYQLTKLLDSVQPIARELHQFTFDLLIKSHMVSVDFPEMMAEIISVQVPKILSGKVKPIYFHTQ
The assay is described as follows: AR-VP16 DNA Binding Assay, antagonist mode (HepG2 cells, 0.1 nM R1881). The format is cell-based. In short, it runs like this:
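HepG2 cells transiently transfected with AR-VP16 (Lipofectin), incubated overnight, then treated with compound in RPMI with charcoal-stripped serum. Antagonist mode adds R1881 at 0.1 nM final. Cells lysed after 48 h incubation for read-out.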

In turn, `CN1CCC(Oc2ccc(N3C(=S)N(c4cnc(C#N)c(C(F)(F)F)c4)C(=O)C34CCC4)cc2F)CC1` [Compound 193, 5-(5-(3-Fluoro-4-((1-methylpiperidin-4-yl)oxy)phenyl)-8-oxo-6-thioxo-5,7-diazaspiro[3.4]octan-7-yl)-3-(trifluoromethyl)picolinonitrile] showed a half-maximal inhibitory concentration (IC50) of less than 1 µM. In turn, `Cc1cc(N2C(=O)C3(CCC3)N(c3ccc(OC4CCOCC4)cc3)C2=S)cnc1C#N` [Compound 194, 3-Methyl-5-(8-oxo-5-(4-((tetrahydro-2H-pyran-4-yl)oxy)phenyl)-6-thioxo-5,7-diazaspiro[3.4]octan-7-yl)picolinonitrile] came in with an IC50 of less than 1 µM. Under `CN1CCC(Oc2ccc(N3C(=S)N(c4cnc(C#N)c(C(F)(F)F)c4)C(=O)C3(C)C)cc2)CC1` [Compound 196, 5-(4,4-Dimethyl-3-(4-((1-methylpiperidin-4-yl)oxy)phenyl)-5-oxo-2-thioxoimidazolidin-1-yl)-3-(trifluoromethyl)picolinonitrile] stands less than 1 µM; under `Cc1cc(N2C(=O)C3(CCC3)N(c3ccc(OCCN4CCN(CC(F)(F)F)CC4)cc3)C2=S)cnc1C#N` [Compound 199, 3-Methyl-5-(8-oxo-6-thioxo-5-(4-(2-(4-(2,2,2-trifluoroethyl)piperazin-1-yl)ethoxy)phenyl)-5,7-diazaspiro[3.4]octan-7-yl)picolinonitrile], less than 1 µM; under `CC(=O)N1CCN(CCOc2ccc(N3C(=S)N(c4cnc(C#N)c(C(F)(F)F)c4)C(=O)C34CCC4)cc2F)CC1` [Compound 202, 5-(5-(4-(2-(4-Acetylpiperazin-1-yl)ethoxy)-3-fluorophenyl)-8-oxo-6-thioxo-5,7-diazaspiro[3.4]octan-7-yl)-3-(trifluoromethyl)picolinonitrile], less than 1 µM. Under `COc1ccc(N2C(=S)N(c3cnc(C#N)c(C(F)(F)F)c3)C(=O)C23CCC3)cc1` [Compound 204, 5-(5-(4-Methoxyphenyl)-8-oxo-6-thioxo-5,7-diazaspiro[3.4]octan-7-yl)-3-(trifluoromethyl)picolinonitrile] stands less than 1 µM; under `N#Cc1ncc(N2C(=O)C3(CCC3)N(c3ccc(Oc4ncccn4)cc3)C2=S)cc1C(F)(F)F` [Compound 206, 5-(8-Oxo-5-(4-(pyrimidin-2-yloxy)phenyl)-6-thioxo-5,7-diazaspiro[3.4]octan-7-yl)-3-(trifluoromethyl)picolinonitrile], less than 1 µM; under `N#Cc1ncc(N2C(=O)C3(CCC3)N(c3ccc(Oc4ccncn4)cc3)C2=S)cc1C(F)(F)F` [Compound 208, 5-(8-Oxo-5-(4-(pyrimidin-4-yloxy)phenyl)-6-thioxo-5,7-diazaspiro[3.4]octan-7-yl)-3-(trifluoromethyl)picolinonitrile], less than 1 µM. Compound `Cc1cc(N2C(=O)C3(CCC3)N(c3ccc(Oc4ccncn4)cc3)C2=S)cnc1C#N` [Compound 209, 3-Methyl-5-(8-oxo-5-(4-(pyrimidin-4-yloxy)phenyl)-6-thioxo-5,7-diazaspiro[3.4]octan-7-yl)picolinonitrile] gave an IC50 of less than 1 µM. `N#Cc1ncc(N2C(=O)C3(CCC3)N(c3ccc(OC4CCN(CCO)CC4)cc3)C2=S)cc1C(F)(F)F` [Compound 218, 5-(5-(4-((1-(2-hydroxyethyl)piperidin-4-yl)oxy)phenyl)-8-oxo-6-thioxo-5,7-diazaspiro[3.4]octan-7-yl)-3-(trifluoromethyl)picolinonitrile] had an IC50 of less than 1 µM. `CNC(=O)CCCc1ccc(N2C(=S)N(c3cnc(C#N)c(C(F)(F)F)c3)C(=O)C23CCC3)cc1` [Compound 230, 4-(4-(7-(6-Cyano-5-(trifluoromethyl)pyridin-3-yl)-8-oxo-6-thioxo-5,7-diazaspiro[3.4]octan-5-yl)phenyl)-N-methylbutanamide] yielded an IC50 of less than 1 µM. In turn, `N#Cc1ncc(N2C(=O)C3(CCC3)N(c3ccc(C(=O)NCc4ccccc4)c(F)c3)C2=S)cc1C(F)(F)F` [Compound 235, N-Benzyl-4-(7-(6-cyano-5-(trifluoromethyl)pyridin-3-yl)-8-oxo-6-thioxo-5,7-diazaspiro[3.4]octan-5-yl)-2-fluorobenzamide] returned an IC50 of less than 1 µM. Under `COCCNC(=O)c1ccc(N2C(=S)N(c3cnc(C#N)c(C(F)(F)F)c3)C(=O)C23CCC3)cc1F` [Compound 248, 4-(7-(6-Cyano-5-(trifluoromethyl)pyridin-3-yl)-8-oxo-6-thioxo-5,7-diazaspiro[3.4]octan-5-yl)-2-fluoro-N-(2-methoxyethyl)benzamide] stands more than 1 µM; under `N#Cc1ncc(N2C(=O)C3(CCC3)N(c3ccc(C(=O)NCCCc4ccccc4)c(F)c3)C2=S)cc1C(F)(F)F` [Compound 258, 4-(7-(6-Cyano-5-(trifluoromethyl)pyridin-3-yl)-8-oxo-6-thioxo-5,7-diazaspiro[3.4]octan-5-yl)-2-fluoro-N-(3-phenylpropyl)benzamide], less than 1 µM; under `N#Cc1ncc(N2C(=O)C3(CCC3)N(c3ccc(C(=O)NCc4cccs4)c(F)c3)C2=S)cc1C(F)(F)F` [Compound 260, 4-(7-(6-Cyano-5-(trifluoromethyl)pyridin-3-yl)-8-oxo-6-thioxo-5,7-diazaspiro[3.4]octan-5-yl)-2-fluoro-N-(thiophen-2-ylmethyl)benzamide], less than 1 µM.

`N#Cc1ncc(N2C(=O)C3(CCC3)N(c3ccc(C(=O)NCc4ccccn4)c(F)c3)C2=S)cc1C(F)(F)F` [Compound 264, 4-(7-(6-Cyano-5-(trifluoromethyl)pyridin-3-yl)-8-oxo-6-thioxo-5,7-diazaspiro[3.4]octan-5-yl)-2-fluoro-N-(pyridin-2-ylmethyl)benzamide] came in with an IC50 of less than 1 µM. For `N#Cc1ncc(N2C(=O)C3(CCC3)N(c3ccc(C(=O)NCc4cccnc4)c(F)c3)C2=S)cc1C(F)(F)F` [Compound 265, 4-(7-(6-Cyano-5-(trifluoromethyl)pyridin-3-yl)-8-oxo-6-thioxo-5,7-diazaspiro[3.4]octan-5-yl)-2-fluoro-N-(pyridin-3-ylmethyl)benzamide], the IC50 was less than 1 µM. With `N#Cc1ncc(N2C(=O)C3(CCC3)N(c3ccc(C(=O)NC4CCCC4)c(F)c3)C2=S)cc1C(F)(F)F` [Compound 267, 4-(7-(6-Cyano-5-(trifluoromethyl)pyridin-3-yl)-8-oxo-6-thioxo-5,7-diazaspiro[3.4]octan-5-yl)-N-cyclopentyl-2-fluorobenzamide] the figure was less than 1 µM; with `N#Cc1ncc(N2C(=O)C3(CCC3)N(c3ccc(C(=O)NCCCN4CCOCC4)c(F)c3)C2=S)cc1C(F)(F)F` [Compound 268, 4-(7-(6-Cyano-5-(trifluoromethyl)pyridin-3-yl)-8-oxo-6-thioxo-5,7-diazaspiro[3.4]octan-5-yl)-2-fluoro-N-(3-morpholinopropyl)benzamide], less than 1 µM; with `Cc1cc(N2C(=O)C3(CCC3)N(c3ccc(C(=O)NCc4ccccc4)c(F)c3)C2=S)cnc1C#N` [Compound 273, N-Benzyl-4-(7-(6-cyano-5-methylpyridin-3-yl)-8-oxo-6-thioxo-5,7-diazaspiro[3.4]octan-5-yl)-2-fluorobenzamide], less than 1 µM. With `CCCNC(=O)c1ccc(N2C(=S)N(c3cnc(C#N)c(C(F)(F)F)c3)C(=O)C23CCC3)cc1F` [Compound 278, 4-(7-(6-Cyano-5-(trifluoromethyl)pyridin-3-yl)-8-oxo-6-thioxo-5,7-diazaspiro[3.4]octan-5-yl)-2-fluoro-N-propylbenzamide] the figure was less than 1 µM; with `C#CCNC(=O)c1ccc(N2C(=S)N(c3cnc(C#N)c(C(F)(F)F)c3)C(=O)C23CCC3)cc1F` [Compound 281, 4-(7-(6-Cyano-5-(trifluoromethyl)pyridin-3-yl)-8-oxo-6-thioxo-5,7-diazaspiro[3.4]octan-5-yl)-2-fluoro-N-(prop-2-yn-1-yl)benzamide], less than 1 µM. Under `CC(C)CCNC(=O)c1ccc(N2C(=S)N(c3cnc(C#N)c(C(F)(F)F)c3)C(=O)C23CCC3)cc1F` [Compound 282, 4-(7-(6-Cyano-5-(trifluoromethyl)pyridin-3-yl)-8-oxo-6-thioxo-5,7-diazaspiro[3.4]octan-5-yl)-2-fluoro-N-isopentylbenzamide] stands less than 1 µM; under `N#Cc1ncc(N2C(=O)C3(CCC3)N(c3ccc(C(=O)NC4CC4)c(F)c3)C2=S)cc1C(F)(F)F` [Compound 284, 4-(7-(6-Cyano-5-(trifluoromethyl)pyridin-3-yl)-8-oxo-6-thioxo-5,7-diazaspiro[3.4]octan-5-yl)-N-cyclopropyl-2-fluorobenzamide], less than 1 µM; under `CC(C)(O)CNC(=O)c1ccc(N2C(=S)N(c3cnc(C#N)c(C(F)(F)F)c3)C(=O)C23CCC3)cc1F` [Compound 285, 4-(7-(6-Cyano-5-(trifluoromethyl)pyridin-3-yl)-8-oxo-6-thioxo-5,7-diazaspiro[3.4]octan-5-yl)-2-fluoro-N-(2-hydroxy-2-methylpropyl)benzamide], more than 1 µM.

Regarding `CC(C)(C)NC(=O)c1ccc(N2C(=S)N(c3cnc(C#N)c(C(F)(F)F)c3)C(=O)C23CCC3)cc1F` [Compound 286, N-(tert-Butyl)-4-(7-(6-cyano-5-(trifluoromethyl)pyridin-3-yl)-8-oxo-6-thioxo-5,7-diazaspiro[3.4]octan-5-yl)-2-fluorobenzamide], the concentration for half-maximal inhibition (IC50) was less than 1 µM. With `N#Cc1ncc(N2C(=O)C3(CCC3)N(c3ccc(C(=O)NCc4ccccc4Cl)c(F)c3)C2=S)cc1C(F)(F)F` [Compound 287, N-(2-Chlorobenzyl)-4-(7-(6-cyano-5-(trifluoromethyl)pyridin-3-yl)-8-oxo-6-thioxo-5,7-diazaspiro[3.4]octan-5-yl)-2-fluorobenzamide] the figure was less than 1 µM.
